Measured values from patent US10272061B2, “Compositions and methods for unoccluded transdermal oxybutynin therapy” (Allergan Sales, LLC, priority 2000, dated 2019).
Read-outs that look alike come from different tables or passages of the source.

Key:
[1] = Plasma concentrations after single and repeated application of 4.4% oxybutynin gel to the abdomen; assay type: in vivo; settings: human, topical, once daily
Source text: (§1) A clinical study in 12 healthy volunteers, 19 to 41 years of age, evaluated plasma concentrations of oxybutynin and the N-desethyloxybutynin metabolite after single and repeated topical applications of oxybutynin gel. The study employed a single-period, open-label, multiple dose design to evaluate the pharmacokinetics and skin tolerability of a gel formulation for oxybutynin hydrochloride.
Volunteers received topical administrations of 3 g of 4.4% oxybutynin gel on 3 consecutive mornings. Each volunteer received the oxybutynin gel administrations on a defined area of unbroken skin on the abdomen. Blood samples were periodically collected throughout the study period and plasma was harvested according to standard procedures. Plasma oxybutynin and N-desethyloxybutynin metabolite concentrations were estimated using high performance liquid chromatography-tandem mass spectrometry method performed according to established guidelines.

[2] = Single-dose pharmacokinetics after oxybutynin gel on 400 cm^2 and 800 cm^2 application areas on the thighs; assay type: in vivo, human; settings: 3 g of 4.4% oxybutynin gel; for Cmax: at 48 hours
Source text: A clinical study in 21 healthy volunteers, 21 to 45 years of age, evaluated the effect of application surface area on the single-dose pharmacokinetic of oxybutynin following topical oxybutynin gel administration. The study employed a two-period, open-labeled, randomized crossover design to evaluate the effect of application surface area on the single dose pharmacokinetics and safety of a topical gel formulation of oxybutynin hydrochloride.
Volunteers received topical administrations of 3 g of 4.4% oxybutynin gel at the beginning of two 72 hour treatment periods, with a minimum six day washout separating the treatment periods. Each volunteer received a dose applied to a 400 cm^2 area in one treatment period, and a dose to an 800 cm^2 area the other treatment period. The sequential order of the treatment periods was randomized. Blood samples were periodically collected throughout the study periods and plasma was harvested according to standard procedures. Plasma oxybutynin and N-desethyloxybutynin metabolite concentrations were evaluated using high performance liquid chromatography-tandem mass spectrometry method performed according to established guidelines.

[3] = Plasma concentrations after single application of 13.2% oxybutynin topical gel to the abdomen; assay type: in vivo, human; settings: single 1 g of 13.2% oxybutynin gel, 133 cm^2 abdomen; for time over which mean plasma levels increased steadily to Cmax: 'during the following' hours
Source text: as §1, with “22” for “12”, “45” for “41”, “after a” for “after”, “single” for “single and repeated”, “application” for “applications”, “single” for “single-period, open-label, multiple”
(§2) Volunteers received a single topical administration of 1 g of 13.2% oxybutynin gel to a 133 cm^2 area of unbroken skin on the abdomen. Blood samples were periodically collected throughout the study period and plasma was harvested according to standard procedures. Plasma oxybutynin and N-desethyloxybutynin metabolite concentrations were estimated using a high performance liquid chromatography-tandem mass spectrometry method performed according to established guidelines.

[4] = Plasma concentrations after single application of 4.4% oxybutynin topical gel to the abdomen; assay type: in vivo, human; settings: single 3 g of 4.4% oxybutynin gel, 400 cm^2 abdomen; for time over which mean plasma levels increased steadily to Cmax: 'during the following' hours
Source text: as §1, with “22” for “12”, “45” for “41”, “after a” for “after”, “single” for “single and repeated”, “application” for “applications”, “single” for “single-period, open-label, multiple”
as §2, with “3” for “1”, “4.4%” for “13.2%”, “400” for “133”

[5] = Single and multiple dose pharmacokinetics after oxybutynin gel administration; assay type: in vivo, human; settings: for half-life: read-out: elimination half-life (converted); for mean Cmax: 72 hour evaluation
Procedure: A clinical study in 20 healthy volunteers, 20 to 44 years of age, evaluated the single and multiple dose pharmacokinetics of oxybutynin and N-desethyloxybutynin following topical oxybutynin gel administration. The study employed a two-period multiple dose study.
In the first treatment period, volunteers received a topical administration of 3 g of 4.4% oxybutynin gel followed by a 72 hour evaluation period. The second treatment period, oxybutynin gel was administered topically to the volunteers on 7 consecutive mornings. The two treatment periods were separated by a 7-day washout period. Blood samples were periodically collected throughout the study periods and plasma was harvested according to standard procedures. Plasma oxybutynin and N-desethyloxybutynin metabolite concentrations were estimated using high performance liquid chromatography-tandem mass spectrometry method performed according to established guidelines.
After a 7-day washout following the initial gel application, subjects applied daily 3 g doses of oxybutynin gel to rotating body sites (abdomen, upper arms, thighs) for 7 consecutive days. Plasma samples were drawn each morning before the next gel application.

[6] = 400 cm^2 application area, thighs
[7] = 800 cm^2 application area, thighs
[8] = human, topical, plasma, read-out: elimination half-life (converted)
[9] = first period: single 3 g of 4.4% oxybutynin gel
[10] = plasma, first period: single 3 g of 4.4% oxybutynin gel
[11] = second period, after the final of 7 daily gel applications
[12] = second period: 7 consecutive daily 3 g gel applications

CCN(CC)CC#CCOC(=O)C(O)(c1ccccc1)C1CCCCC1 (stereo not shown) [oxybutynin]
concentration at 24 h ([1]; plasma, 3 g of 4.4% oxybutynin gel, after the initial application of 3 g of 4.4% oxybutynin gel, read-out: plasma concentration at the 24 hour post-dose timepoint, mean±SD): 4.02 ± 2.19 ng/mL
concentration at 24 h ([1]; plasma, 3 g of 4.4% oxybutynin gel, after the second daily application of 3 g of 4.4% oxybutynin gel, read-out: plasma concentration 24 hours after application, mean±SD): 4.47 ± 2.38 ng/mL
concentration at 24 h ([1]; plasma, 3 g of 4.4% oxybutynin gel, after the third daily application of 3 g of 4.4% oxybutynin gel, read-out: plasma concentration at the 24 hour post-dose timepoint, mean±SD): 5.86 ± 3.17 ng/mL
half-life ([1]; 3 g of 4.4% oxybutynin gel, plasma elimination after the third application of 4.4% oxybutynin gel, read-out: apparent half-life (converted)): ~1080 min
Cmax ([1]; plasma, following the third application of 3 g of 4.4% oxybutynin gel, read-out: Cmax, mean±SD): 6.05 ± 3.21 ng/mL
time at which measurable plasma levels were detectable [2, 6]: 2 h
time of the initial plasma peak [2, 6]: 24 h
plasma peak during the first 24 hours following dosing [2, 7]: 2.92 ng/mL
concentration at 24 hours ([2]; human, plasma, topical, 400 cm^2 application area, thighs, read-out: mean plasma level at the initial peak): 2.25 ng/mL
Cmax ([2]; human, topical, plasma, 800 cm^2 application area, read-out: Cmax): 3.8 ng/mL
Cmax ([3]; human, topical, plasma, healthy volunteers): 1.17 ng/mL
half-life [3, 8]: 1060 min
time of second plasma peak after dosing [3]: approximately 48 hours
time at which measurable plasma levels were detectable (first sampling point) ([3]; healthy volunteers): 2 h
time over which mean plasma levels increased steadily to Cmax [3]: 26 h
Cmax ([4]; human, plasma, topical, healthy volunteers, read-out: mean maximum plasma concentration (Cmax)): 2.17 ng/mL
half-life [4, 8]: ~1110 min
time of second plasma peak after dosing [4]: approximately 48 hours
time at which measurable plasma levels were detectable (first sampling point) ([4]; healthy volunteers): 2 h
time over which mean plasma levels increased steadily to Cmax [4]: 24 h
average plasma concentration during the 20 hours following the application ([5]; after the final of 7 daily 3 g gel applications): 6.22 ng/mL
mean oxybutynin AUC higher than mean N-desethyloxybutynin AUC [5, 9]: ~41%
mean oxybutynin Cmax higher than mean N-desethyloxybutynin Cmax [5, 9]: approximately 18%
time within which measurable plasma levels were detectable [5, 9]: two
Cmax ([5]; human, plasma, topical, 3 g of oxybutynin gel, once daily, second period: 7 consecutive daily 3 g gel applications, N-desethyloxybutynin: maximum for the 0-24 hour interval, read-out: mean Cmax following the final gel application): 9.01 ng/mL
concentration at 0 h ([5]; human, plasma, topical, 3 g of oxybutynin gel, once daily, second period: 7 consecutive daily 3 g gel applications, read-out: mean plasma concentration at Time 0 of the final gel application): 4.63 ng/mL
half-life ([5]; human, topical, 3 g of oxybutynin gel, once daily, plasma, after the final of 7 daily 3 g gel applications): ~1440 min
AUC ([5]; human, topical, 3 g of oxybutynin gel, once daily, plasma, second period, first 24 hours after the final of 7 daily 3 g gel applications): 149 ng·h/mL
AUC ([5]; human, topical, plasma, first period: single 3 g of 4.4% oxybutynin gel, 72 hour treatment period): 186 ng·h/mL
half-life ([5]; human, topical, plasma, first period: single 3 g of 4.4% oxybutynin gel): ~1080 min
mean Cmax [5, 10]: 6.35 ng/mL
mean oxybutynin AUC higher than mean N-desethyloxybutynin AUC [5, 11]: ~19%
mean oxybutynin Cmax higher than mean N-desethyloxybutynin Cmax [5, 11]: approximately 40%
time of maximum concentration after the final gel application [5, 12]: approximately 23 hours

CCNCC#CCOC(=O)C(O)(c1ccccc1)C1CCCCC1 (stereo not shown) [N-desethyloxybutynin]
mean plasma level at the initial peak [2, 6]: 2.21 ng/mL
time at which measurable plasma levels were detectable [2, 6]: ≤ 2 h
time of the initial plasma peak [2, 6]: 28 h
plasma peak during the first 24 hours following dosing [2, 7]: 2.39 ng/mL
Cmax ([2]; plasma N-desethyloxybutynin, 400 cm^2 application area): 2.72 ng/mL
Cmax ([2]; plasma, 800 cm^2 application area): 3.40 ng/mL
elimination half-life ([3]; plasma): 19.53 h
mean Cmax ([3]; plasma, healthy volunteers): 1.12 ng/mL
time of second plasma peak after dosing [3]: approximately 48 hours
time at which measurable plasma levels were detectable (first sampling point) ([3]; healthy volunteers): 2 h
time over which mean plasma levels increased steadily to Cmax [3]: 28 h
elimination half-life ([4]; plasma): approximately 26.81 hours
time of second plasma peak after dosing [4]: approximately 48 hours
mean maximum plasma concentration (Cmax) ([4]; healthy volunteers): 2.20 ng/mL
time at which measurable plasma levels were detectable (first sampling point) ([4]; healthy volunteers): 2 h
time over which mean plasma levels increased steadily to Cmax [4]: 28 h
mean Cmax [5, 10]: 4.50 ng/mL
mean AUC ([5]; plasma, first period: single 3 g of 4.4% oxybutynin gel, 72 hour treatment period): 157 ng·h/mL
mean AUC ([5]; plasma, second period, first 24 hours after the final of 7 daily 3 g gel applications): 125 ng·h/mL
time of maximum concentration after the final gel application [5, 12]: approximately 16 hours
mean Cmax following the final gel application ([5]; second period: 7 consecutive daily 3 g gel applications, N-desethyloxybutynin: maximum for the 0-24 hour interval): 6.44 ng/mL
